In brackets after ≈: the same amount, converted by molar mass.
Assays:
Format in all cases: functional
Staphylococcus aureus [1] = assay: Antibacterial activity against methicillin-resistant Staphylococcus aureus ATCC 43300 infected in neutropenic mouse model of thigh infection assessed as reduction in bacterial load at 20 mg/kg, iv measured after 24 hrs by colony counting method
Staphylococcus aureus [2] = assay: Potency index, ratio of Pleuromutilin MIC to test compound MIC for antibacterial activity against Staphylococcus aureus ATCC 29213 incubated for 24 hrs by CLSI based broth dilution method
Staphylococcus aureus [3] = assay: Antibacterial activity against Staphylococcus aureus ATCC 43300 assessed as bacterial growth inhibition incubated for 24 hrs by CLSI based broth dilution method
Staphylococcus aureus [4] = assay: Antibacterial activity against Staphylococcus aureus clinical isolate 144 assessed as bacterial growth inhibition incubated for 24 hrs by CLSI based broth dilution method
Staphylococcus aureus [5] = assay: Potency index, ratio of Pleuromutilin MIC to test compound MIC for antibacterial activity against Staphylococcus aureus clinical isolate AD3 incubated for 24 hrs by CLSI based broth dilution method
Staphylococcus aureus [6] = assay: Potency index, ratio of Pleuromutilin MIC to test compound MIC for antibacterial activity against Staphylococcus aureus clinical isolate 144 incubated for 24 hrs by CLSI based broth dilution method
Staphylococcus aureus [7] = assay: Potency index, ratio of Pleuromutilin MIC to test compound MIC for antibacterial activity against Staphylococcus aureus ATCC 43300 incubated for 24 hrs by CLSI based broth dilution method
Staphylococcus aureus [8] = assay: Antibacterial activity against Staphylococcus aureus clinical isolate AD3 assessed as bacterial growth inhibition incubated for 24 hrs by CLSI based broth dilution method
Staphylococcus aureus [9] = assay: Antibacterial activity against Staphylococcus aureus ATCC 29213 assessed as bacterial growth inhibition incubated for 24 hrs by CLSI based broth dilution method
Pseudomonas aeruginosa [10] = assay: Antibacterial activity against Pseudomonas aeruginosa assessed as bacterial growth inhibition by broth dilution method
Klebsiella pneumoniae = assay: Antibacterial activity against Klebsiella pneumoniae assessed as bacterial growth inhibition by broth dilution method
Pseudomonas aeruginosa [11] = assay: Antibacterial activity against Pseudomonas aeruginosa ATCC 10145 assessed as bacterial growth inhibition measured for 5 to 20 mins by broth dilution method; conditions: time 5-20 min
Staphylococcus aureus [12] = assay: Antibacterial activity against Staphylococcus aureus ATCC 43300 assessed as bacterial growth inhibition measured for 5 to 20 mins by broth dilution method; conditions: time 5-20 min
Bacillus subtilis = assay: Antibacterial activity against Bacillus subtilis assessed as bacterial growth inhibition by broth microdilution method
Escherichia coli = assay: Antibacterial activity against Escherichia coli assessed as bacterial growth inhibition by broth microdilution method
Pseudomonas aeruginosa [13] = assay: Antibacterial activity against Pseudomonas aeruginosa assessed as bacterial growth inhibition by broth microdilution method
Staphylococcus aureus [14] = assay: Antibacterial activity against Staphylococcus aureus assessed as bacterial growth inhibition by broth microdilution method
Staphylococcus aureus [15] = assay: Antibacterial activity against methicillin-resistant Staphylococcus aureus assessed as bacterial growth inhibition by agar dilution method

## C=C[C@]1(C)C[C@@H](OC(=O)CN2CCN(C(=O)Cn3cc(CN4CCN(c5ccc([N+](=O)[O-])cc5)CC4)nn3)CC2)[C@@]2(C)[C@@H]3C(=O)CC[C@@]3(CC[C@@H]2C)[C@@H](C)[C@@H]1O
Staphylococcus aureus [1]
  Activity: -2.07 log10CFU/ml
Staphylococcus aureus [2]
  Ratio: 2
Staphylococcus aureus [3]
  MIC: 1 µg/mL (≈ 1.29 µM)
Staphylococcus aureus [4]
  MIC: 1 µg/mL (≈ 1.29 µM)
Staphylococcus aureus [5]
  Ratio: 2
Staphylococcus aureus [6]
  Ratio: 2
Staphylococcus aureus [7]
  Ratio: 2
Staphylococcus aureus [8]
  MIC: 1 µg/mL (≈ 1.29 µM)
Staphylococcus aureus [9]
  MIC: 1 µg/mL (≈ 1.29 µM)

## CC1(C)S[C@@H]2[C@H](NC(=O)Cc3ccccc3)C(=O)N2[C@H]1C(=O)O [PENICILLIN G]
Pseudomonas aeruginosa [10]
  MIC: 18.8 µg/mL (≈ 56.1 µM)
Klebsiella pneumoniae
  MIC: 9.37 µg/mL (≈ 28 µM)

## COCCOCCOCCOC(=O)c1cccc(-n2cc(CO[C@@H]3O[C@H](COC(C)=O)[C@H](OC(C)=O)[C@H](OC(C)=O)[C@H]3OC(C)=O)nn2)c1
Pseudomonas aeruginosa [11]
  MIC: 5 µg/mL (≈ 7.19 µM)
Staphylococcus aureus [12]
  MIC: 5 µg/mL (≈ 7.19 µM)

## CC1(C)S[C@@H]2[C@H](NC(=O)[C@H](N)c3ccccc3)C(=O)N2[C@H]1C(=O)O [AMPICILLIN]
Bacillus subtilis
  MIC: 4 µg/mL (≈ 11.4 µM)
Escherichia coli
  MIC: 4 µg/mL (≈ 11.4 µM)
Pseudomonas aeruginosa [11]
  MIC: 5 µg/mL (≈ 14.3 µM)
Pseudomonas aeruginosa [13]
  MIC: 1 µg/mL (≈ 2.86 µM)
Staphylococcus aureus [14]
  MIC: 4 µg/mL (≈ 11.4 µM)
Staphylococcus aureus [12]
  MIC: 2.5 µg/mL (≈ 7.15 µM)

## COc1cc(/C=C/c2ccc(OCc3cn(-c4ccc(C(=O)O)cc4)nn3)cc2)cc(OC)c1
Staphylococcus aureus [15]
  MIC: 1.2 µg/mL (≈ 2.62 µM)
